Data as given in patent US20240025891A1 (Celgene Corporation, priority 2020, published 2024).

Tested on: Onchocerca gutturosa adult male worms
Experiment: Onchocerciasis in vitro screening model Onchocerca gutturosa (worm motility score and MTT/formazan colorimetry)
Conditions: Onchocerca gutturosa, read-out: O. gutt Act class
Experimental: Onchocerciasis: In Vitro Screening Model Onchocerca gutturosa
Parasite and cell cultures. Onchocerca gutturosa adult male worms were obtained by dissection from the nuchal ligament connective tissues of naturally infected cattle, from Gambia, W Africa.
The worms were maintained for at least 24 h in culture before use in Eagles Minimum Essential Medium with Earl's Salts (Gibco, UK)+10% heat inactivated new born calf serum (Gibco, UK)+antibiotic cover of 200 units/ml penicillin, 200 μg/ml streptomycin and 0.5 μg/ml amphotericin B (Sigma, UK). Only normally active specimens were used in the test. All cultures and assays were conducted at 37° C. under an atmosphere of 5% CO2 in air.
Drug sensitivity assays. Compound stock solutions were prepared in 100% DMSO unless otherwise indicated and diluted into the medium. Any unused compound stocks were stored at −20° C. Assays were performed in sterile 24-well (2 ml) plates (Falcon, UK).
Worms were then transferred individually to each well of the plate using fine forceps. Worm viability was assessed using 2 parameters: • The measurement of mean worm motility scores on a scale of 0 (immotile) to 10 (maximum) every 24 h, terminating at 120 h, using an Olympus inverted microscope. • The biochemical evaluation of worm viability using MTT/formazan colorimetry. The MTT assay was carried out after the last motility reading (120 h). Single intact worms were placed in each well of a 48-well plate (Falcon, UK) containing 0.5 ml of a solution consisting of 0.5 mg/ml MTT (Sigma UK) in phosphate buffered saline, and then incubated for 30 min at 37° C. The worms were removed, blotted carefully, and individually transferred to separate wells of a 96-well microtiter plate, each containing 200 μl of DMSO to solubilize the formazan. After 1 h the plate was gently agitated to disperse the color evenly and the absorbance value (optical density) of the resulting formazan solution was determined at 490 nm using a multi-well scanning spectrophotometer (Elisa-reader, Dynatech, UK). Inhibition of formazan formation was correlated with worm damage or death.
Primary screen. New compounds were usually tested at 1.25×10^−5 M. Also expressed in μg/ml.
Secondary screen. […] Serial 1 in 4 drug dilutions was carried out to find activity endpoint and EC50 values for motility reduction and inhibition of formazan formation were produced. EC50 values were determined using Excel or Origin V7 scientific graphing and data analysis software.

Compound	IC50 [nM]
CC(=O)N(C)c1cc(C(F)(F)F)cnc1Nc1nc(-c2cc3c(cn2)N(C)CC3)cs1 [Example 76, N-methyl-N-(2-(4-(1-methyl-2,3-dihydro-1H-pyrrolo[2,3-c]pyridin-5-yl)thiazol-2-ylamino)-5-(trifluoromethyl)pyridin-3-yl)acetamide]	< 200
CC(C)c1cnc(Nc2nc(-c3ccccn3)cs2)cc1C(F)(F)F [Example 127, N-(5-isopropyl-4-(trifluoro-methyl)pyridin-2-yl)-4-(pyridin-2-yl)thiazol-2-amine]	500 to 5000
c1ccc(-c2ccnc(Nc3cc(-c4ccccn4)ns3)c2)cc1 [Example 119, N-(4-phenylpyridin-2-yl)-3-(pyridin-2-yl)isothiazol-5-amine]	500 to 5000
CN(C)Cc1sc(Nc2cc(C(F)(F)F)ccn2)nc1-c1ccccn1 [Example 195, 5-((dimethylamino)methyl)-4-(pyridin-2-yl) N-(4-(trifluoromethyl)pyridin-2-yl)thiazol-2-amine]	200 to 500
Cc1sc(Nc2cc(C(=O)NCC(F)(F)F)ccn2)nc1-c1ccc(OC2CCOCC2)cn1 [Example 106, 2-(5-methyl-4-(5-(tetrahydro-2H-pyran-4-yloxy)pyridin-2-yl)thiazol-2-ylamino)-N-(2,2,2-trifluoroethyl) isonicotinamide]	200 to 500
CCCc1ccnc(Nc2nc(-c3ccccn3)cs2)c1 [Example 172, N-(4-propylpyridin-2-yl)-4-(pyridin-2-yl)thiazol-2-amine]	200 to 500
Cn1cc(-c2ccnc(Nc3nc(-c4ccccn4)cs3)c2)cn1 [Example 161, N-(4-(1-methyl-1H-pyrazol-4-yl)pyridin-2-yl)-4-(pyridin-2-yl)thiazol-2-amine]	< 200
c1ccc(-c2csc(Nc3cc4ccccc4cn3)n2)nc1 [Example 128, N-(isoquinolin-3-yl)-4-(pyridin-2-yl)thiazol-2-amine]	< 200
CCOc1ccc(Nc2nc(-c3ccc(OCC)cn3)cs2)nc1 [Example 87, N,4-bis(5-ethoxypyridin-2-yl)thiazol-2-amine]	< 200
CC(C)c1ccc(Nc2nc(-c3ccccn3)cs2)nc1 [Example 219, N-(5-isopropylpyridin-2-yl)-4-(pyridin-2-yl)thiazol-2-amine]	< 200
Cc1ccnc(Nc2nc(-c3ccccn3)c(C(C)(C)C)s2)c1 [Example 181, 5-tert-butyl-N-(4-methylpyridin-2-yl)-4-(pyridin-2-yl)thiazol-2-amine]	200 to 500
COc1ccnc(Nc2nc(-c3ccccn3)cs2)c1 [Example 121, N-(4-methoxypyridin-2-yl)-4-(pyridin-2-yl)thiazol-2-amine]	200 to 500
c1ccc(-c2csc(Nc3cc(-c4cnccn4)ccn3)n2)nc1 [Example 173, N-(4-(pyrazin-2-yl)pyridin-2-yl)-4-(pyridin-2-yl)thiazol-2-amine]	< 200
Cc1ccnc(Nc2nc(-c3cc(OC4COC4)ccn3)cs2)c1 [Example 102, N-(4-methylpyridin-2-yl)-4-(4-(oxetan-3-yloxy)pyridin-2-yl)thiazol-2-amine]	< 200
Cc1ccnc(-c2csc(Nc3ncccc3-c3ccccc3)n2)c1 [Example 99, 4-(4-methylpyridin-2-yl)-N-(3-phenylpyridin-2-yl)thiazol-2-amine]	500 to 5000
O=C(O)c1sc(Nc2cc(C(F)(F)F)ccn2)nc1-c1ccccn1 [Example 206, 4-(pyridin-2-yl)-2-(4-(trifluoromethyl)pyridin-2-ylamino) thiazole-5-carboxylic acid]	< 200
O=C(NCC(F)(F)F)C1CCCN(c2ccc(Nc3nc(-c4ccccn4)cs3)nc2)C1 (stereo not drawn) [Example 160, 1-(6-(4-(pyridin-2-yl)thiazol-2-ylamino)pyridin-3-yl)-N-(2,2,2-trifluoroethyl) piperidine-3-carboxamide]	< 200

Compound	IC50 [nM]
CCOc1ccc(-c2csc(Nc3cccc(C)n3)n2)nc1 [Example 90, 4-(5-ethoxypyridin-2-yl)-N-(6-methylpyridin-2-yl)thiazol-2-amine]	< 200
Cc1ccnc(Nc2csc(-c3ncccc3C)n2)c1 [Example 115, 2-(3-methylpyridin-2-yl)-N-(4-methylpyridin-2-yl)thiazol-4-amine]	500 to 5000
CCNC(=O)c1ccnc(Nc2nc(-c3ccccn3)cs2)c1 [Example 178, N-ethyl-2-(4-(pyridin-2-yl)thiazol-2-ylamino) isonicotinamide]	< 200
CC(C)NC(=O)c1ccnc(Nc2nc(-c3ccccn3)cs2)c1 [Example 146, N-isopropyl-2-(4-(pyridin-2-yl)thiazol-2-ylamino) isonicotinamide]	< 200
O=C(c1ccnc(Nc2nc(-c3ccccn3)cs2)c1)N1CCC(F)(F)CC1 [Example 145, (4,4-difluoro-piperidin-1-yl)(2-(4-(pyridin-2-yl)thiazol-2-ylamino)pyridin-4-yl)methanone]	< 200
Cc1cccnc1Nc1cc(-c2ccc(OC3CCOCC3)cn2)nn1-c1ccccc1 [Example 234, 3-methyl-N-(1-phenyl-3-(5-(tetrahydro-2H-pyran-4-yloxy)pyridin-2-yl)-1H-pyrazol-5-yl)pyridin-2-amine]	500 to 5000
CCOc1cccc(-c2csc(Nc3cc(C)ccn3)n2)n1 [Example 78, 4-(6-ethoxypyridin-2-yl)-N-(4-methylpyridin-2-yl)thiazol-2-amine]	500 to 5000
COc1ccc(-c2csc(Nc3cc(C)ccn3)n2)nc1 [Example 225, 4-(5-methoxypyridin-2-yl)-N-(4-methylpyridin-2-yl)thiazol-2-amine]	< 200
CCc1ccc(Nc2nc(-c3ccccn3)cs2)nc1 [Example 123, N-(5-ethylpyridin-2-yl)-4-(pyridin-2-yl)thiazol-2-amine]	< 200
CCOc1cnc(-c2csc(Nc3cc(C)ccn3)n2)c(C)c1 [Example 74, 4-(5-ethoxy-3-methylpyridin-2-yl)-N-(4-methylpyridin-2-yl)thiazol-2-amine]	< 200
O=C(NC1CCCC1)c1sc(Nc2cc(C(F)(F)F)ccn2)nc1-c1ccccn1 [Example 204, N-cyclopentyl-4-(pyridin-2-yl)-2-(4-(trifluoromethyl)pyridin-2-ylamino) thiazole-5-carboxamide]	500 to 5000
COc1ccnc(-c2csc(Nc3ncc(C(F)(F)F)cc3N(C)C(C)=O)n2)c1 [Example 96, N-(2-(4-(4-methoxypyridin-2-yl)thiazol-2-ylamino)-5-(trifluoromethyl)pyridin-3-yl)-N-methylacetamide]	200 to 500
FC(F)(F)c1ccnc(Nc2nc(-c3ccccn3)cs2)c1 [Example 120, 4-(pyridin-2-yl)-N-(4-(trifluoromethyl)pyridin-2-yl)thiazol-2-amine]	< 200
c1ccc(-c2csc(Nc3ncccn3)n2)nc1 [Example 213, 4-(pyridin-2-yl)-N-(pyrimidin-2-yl)thiazol-2-amine]	500 to 5000
CC(=O)N(C)c1cc(C(F)(F)F)cnc1Nc1nc(-c2ccccn2)cs1 [Example 212, N-methyl-N-(2-(4-(pyridin-2-yl)thiazol-2-ylamino)-5-(trifluoro-methyl)pyridin-3-yl) acetamide]	< 200
O=C(c1sc(Nc2cc(C(F)(F)F)ccn2)nc1-c1ccccn1)N1CCCCC1 [Example 200, piperidin-1-yl(4-(pyridin-2-yl)-2-(4-(trifluoromethyl)pyridin-2-ylamino)thiazol-5-yl)methanone]	500 to 5000
